Earlier results in patent publication US20210324031A1, “COMPOUNDS, COMPOSITIONS, METHODS, AND USES FOR TREATING LEPTIN RESISTANCE, OBESITY, DIABETES MELLITUS AND METABOLIC SYNDROME” (priority 2019, published 2021).
Where a SMILES comes first, the peptide text is derived from it. [ ]: non-standard residue; d: D form. The star is where a group is joined. Dolaproine = CO[C@@H]([C@@H]1CCCN1)[C@@H](C)C(=O)O; Dil = CC[C@H](C)[C@H](NC)[C@@H](CC(=O)O)OC; X1 = C[C@@H](N*)[C@@H](O)c1ccccc1; NMeV = CN[C@H](C(=O)O)C(C)C

Tests used:
[1] = Human cancer clinical trials
[2] = tested on: CD30+ ALCL type tumor Karpas 299

Compound | toxicity in clinical trials [1] | control of tumor growth ([2]; ADC format, conjugated to an anti-CD30 antibody, drug to antibody ratio 2:1, MMAE dose 10 times lower than the free drug) | halt of tumor growth ([2]; free drug at maximal tolerated dose 0.3 mg/kg, compared with saline) | maximal tolerated dose ([2]; free drug, mice with human xenografted tumors) [mg/kg]
NS(=O)(=O)OC[C@H]1C[C@H](n2ccc3c(N[C@@H]4CCc5ccccc54)ncnc32)C[C@H]1O (stereo in doubt) [MLN4924, ((1R,2R,4S)-4-(4-(((R)-2,3-dihydro-1H-inden-1-yl)amino)-7H-pyrrolo[2,3-d]pyrimidin-7-yl)-2-hydroxycyclopentyl)methyl sulfamate] | toxic | – | – | –
CC[C@H](C)[C@@H]([C@@H](CC(=O)N1CCC[C@H]1[C@H](OC)[C@@H](C)C(=O)N[C@H](C)[C@@H](O)c1ccccc1)OC)N(C)C(=O)[C@@H](NC(=O)[C@@H](NC)C(C)C)C(C)C [MMAE, monomethyl auristatin E] (H-[NMeV]V[Dil][Dolaproine]-X1) | – | completely control tumor growth | only slightly better than saline | 0.3
